The text below walks through data of patent US20200239530A1, “COMPOUNDS AND METHODS OF MODULATING PROTEIN DEGRADATION” (Vividion Therapeutics, Inc., priority 2017, published 2020).

Holding throughout (assay type): binding
Test [1] concerns the target T1, Q9Y297 (Homo sapiens, UniProt Q9Y297).
T1 construct: 200 μL of lysate containing 5 mg/ml proteome was treated with 2 μL of 100× compound stock; endogenous in cells
Briefly: Competitive cysteine profiling, probe competition (Table 2B). The text has this:
(§1) The following 96-well sample prep protocol was used for sample preparation.

For test [2], the target named is cysteine residue illustrated in Table 1A or Table 2A (Homo sapiens, UniProt Q13616). Briefly: Competitive cysteine profiling of cell lysate with desthiobiotin iodoacetamide probe (96-well sample prep). On the set-up: endogenous in cells. The settings on record: UniProt Q13616; 100 uM. On the procedure:
In some embodiments, the solution sample (e.g., cell sample, cell lysate sample, or comprising isolated proteins) is incubated with a compound of Formula (I) for analysis of protein-probe interactions. In some instances, the solution sample (e.g., cell sample, cell lysate sample, or comprising isolated proteins) is further incubated in the presence of an additional compound probe prior to addition of the compound of Formula (I). […] In such instances, the solution sample is incubated with a probe and a ligand for competitive protein profiling analysis.
as §1
Cells were resuspended in cold PBS on ice and sonicated with a probe sonicator to achieve lysis. 200 μL of lysate containing 5 mg/ml proteome was treated with 2 μL of 100× compound stock in a 2-mL deep-well plate. The treated lysate was subsequently incubate at 25° C. for 1 hr with shaking at 600 rpm. The treated lysate was further incubated with 2 μL of 10 mM desthiobiotin iodoacetamide probe at 25° C. for 1 hr with shaking at 600 rpm. Next, the lysate was further treat with 20 μL of solution of PBS containing 11 mM MgSO4 and 2.5% Turbonuclease stock and incubated at 25° C. for 20 minutes with shaking at 600 rpm. 1.7 mL ice-cold acetone was added to each well and incubated at −20° C. for 2 hr, followed by max speed (4200 rpm) spin for 45 min. […]

Test [3] addresses T2, Q8NHG8 (Homo sapiens, UniProt Q8NHG8).
T2 construct: 200 μL of lysate containing 5 mg/ml proteome was treated with 2 μL of 100× compound stock; endogenous in cells
Description: Cysteine liganding, probe competition (Table 2B). The settings on record: one line per cysteine site.
Text: as §1

The target in test [4] is T3, Q8ND25 (Homo sapiens, UniProt Q8ND25).
T3 construct: 200 μL of lysate containing 5 mg/ml proteome was treated with 2 μL of 100× compound stock; endogenous in cells
T3 sequence (Q8ND25 whole entry): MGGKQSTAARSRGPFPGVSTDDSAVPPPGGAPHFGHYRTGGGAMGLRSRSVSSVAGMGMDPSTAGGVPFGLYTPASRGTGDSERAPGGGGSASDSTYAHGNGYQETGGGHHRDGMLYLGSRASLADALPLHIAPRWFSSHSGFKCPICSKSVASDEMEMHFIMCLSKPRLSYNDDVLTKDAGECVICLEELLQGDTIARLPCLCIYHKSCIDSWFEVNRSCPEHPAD
Briefly: Cysteine liganding, probe competition (Table 2B). To be noted: one line per cysteine site.
Text: as §1

Setting [5] is: 500 uM, read-out: KB02_500 uM_percent_inhibition.
The mark [6] stands for this setting: 100 uM, read-out: KB05_100 uM_percent_inhibition.

T2 sequence (Q8NHG8 whole entry): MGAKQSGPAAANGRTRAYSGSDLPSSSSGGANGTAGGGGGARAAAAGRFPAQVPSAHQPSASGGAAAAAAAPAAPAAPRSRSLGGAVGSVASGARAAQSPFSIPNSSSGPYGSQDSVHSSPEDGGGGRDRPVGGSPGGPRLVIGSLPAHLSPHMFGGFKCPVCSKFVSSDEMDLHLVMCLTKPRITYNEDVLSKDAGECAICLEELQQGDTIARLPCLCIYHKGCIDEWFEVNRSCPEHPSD
Sequence of cysteine residue illustrated in Table 1A or Table 2A (Q13616 whole entry): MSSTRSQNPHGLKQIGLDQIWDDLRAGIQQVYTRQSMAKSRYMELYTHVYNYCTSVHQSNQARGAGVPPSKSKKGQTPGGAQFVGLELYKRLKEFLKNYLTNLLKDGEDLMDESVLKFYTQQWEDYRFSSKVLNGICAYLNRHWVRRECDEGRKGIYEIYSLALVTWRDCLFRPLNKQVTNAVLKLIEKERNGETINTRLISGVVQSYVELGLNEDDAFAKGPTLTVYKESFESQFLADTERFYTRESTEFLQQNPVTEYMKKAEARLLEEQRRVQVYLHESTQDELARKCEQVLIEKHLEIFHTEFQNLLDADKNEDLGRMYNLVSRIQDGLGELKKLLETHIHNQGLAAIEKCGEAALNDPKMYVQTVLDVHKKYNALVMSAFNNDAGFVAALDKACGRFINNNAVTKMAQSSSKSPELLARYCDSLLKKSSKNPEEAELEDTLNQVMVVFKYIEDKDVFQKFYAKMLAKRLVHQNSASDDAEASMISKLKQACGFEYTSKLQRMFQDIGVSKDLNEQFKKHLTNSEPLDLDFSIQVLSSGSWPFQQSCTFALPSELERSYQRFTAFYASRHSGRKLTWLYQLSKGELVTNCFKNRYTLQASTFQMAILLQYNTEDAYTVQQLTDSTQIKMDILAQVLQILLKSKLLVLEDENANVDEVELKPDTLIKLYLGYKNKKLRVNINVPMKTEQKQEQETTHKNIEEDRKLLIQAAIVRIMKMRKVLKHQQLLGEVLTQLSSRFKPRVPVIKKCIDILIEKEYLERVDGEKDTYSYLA
T1 sequence (Q9Y297 whole entry): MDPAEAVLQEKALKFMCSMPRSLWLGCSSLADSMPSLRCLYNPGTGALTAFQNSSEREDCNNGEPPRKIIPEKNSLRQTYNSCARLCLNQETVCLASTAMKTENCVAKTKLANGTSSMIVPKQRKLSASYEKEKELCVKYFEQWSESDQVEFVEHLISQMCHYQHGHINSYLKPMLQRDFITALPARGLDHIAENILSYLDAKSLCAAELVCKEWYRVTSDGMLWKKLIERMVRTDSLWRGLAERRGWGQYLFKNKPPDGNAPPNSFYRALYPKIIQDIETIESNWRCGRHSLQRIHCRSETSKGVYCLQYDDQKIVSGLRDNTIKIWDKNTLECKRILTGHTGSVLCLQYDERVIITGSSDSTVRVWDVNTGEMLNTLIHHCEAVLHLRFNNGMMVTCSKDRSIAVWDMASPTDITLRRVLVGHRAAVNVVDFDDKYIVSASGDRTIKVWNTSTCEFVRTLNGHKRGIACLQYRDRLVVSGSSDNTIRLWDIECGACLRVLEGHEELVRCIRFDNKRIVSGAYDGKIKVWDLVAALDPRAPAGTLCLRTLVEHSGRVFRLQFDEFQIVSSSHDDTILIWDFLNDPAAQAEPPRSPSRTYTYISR

Turning to `O=C(CCl)Nc1cc(C(F)(F)F)cc(C(F)(F)F)c1` [KBO3], the “KB03_100 uM_percent_inhibition” value in test [1] (100 uM) was determined as 54%; in test [2], 31%.

`COc1ccc2c(c1)CCCN2C(=O)CCl` [KB02]: the inhibition at 500 µM in test [3] (setting [5]) stood at 35%; in test [4] (setting [5]), 42%.

For the compound `C=CC(=O)N(c1ccccc1)c1ccc(Br)cc1` [KB05], the figures for the inhibition at 100 µM in test [1] (read-out: KB05_100 uM_percent_inhibition), in test [3] (setting [6]) and in test [4] (setting [6]) were 43%, 9% and 9%, respectively. The “KB05_100 uM_percent_inhibition” value in test [2] was found to be 4%.
